Measured values reported in US6982270B1, “3,4-dihydro-(1H)quinazolin-2-one compounds as CSBP/p38 kinase inhibitors” (SmithKline Beecham Corporation, priority 1999, dated 2006).

Target: T1, CSBP/p38 (Homo sapiens, UniProt Q16539)
T1 construct: made in house; host or cells: yeast
Experiment: CSBP/p38 Kinase Assay
Format: biochemical
Details: 32P transfer from ATP to EGFR-derived peptide T669; yeast-expressed, activated p38; 0.17 mM ATP; "this binding assay or a similar assay"; read-out: IC50 (positive inhibitory activity)
Experimental: This assay measures the CSBP/p38-catalyzed transfer of ^32p from [a−^32P]ATP to threonine residue in an epidermal growth factor receptor (EGFR)-derived peptide (T669) with the following sequence: […] (residues 661-681). (See Gallagher et al., “Regulation of Stress Induced Cytokine Production by Pyridinyl Imidazoles: Inhibition of CSBP Kinase”, BioOrganic & Medicinal Chemistry, 1997, 5, 49-64).
Reactions were carried in round bottom 96 well plate (from Coming) in a […] volume. Reactions contained (in final concentration): 25 mM Hepes, pH 7.5; 8 mM MgCl2; 0.17 mM ATP (the Km[ATP] of p38 (see Lee et al., Nature 300, n72 pg. 639-746 (December 1994)); 2.5 uCi of [g-32P]ATP; 0.2 mM sodium orthovanadate; 1 mM DTT; 0.1% BSA; 10% glycerol; 0.67 mM T669 peptide; and 24 nM of yeast-expressed, activated and purified p38. Reactions were initiated by the addition of [gamma-32P]Mg/ATP, and incubated for 25 min. at 37° C. Inhibitors (dissolved in DMSO) were incubated with the reaction mixture on ice for 30 minutes prior to adding the 32P-ATP. Final DMSO concentration was 0.16%. Reactions were terminated by adding 10 ul of 0.3 M phosphoric acid, and phosphorylated peptide was isolated from the reactions by capturing it on p81 phosphocellulose filters. Filters were washed with 75 mM phosphoric acids, and incorporated 32P was quantified using beta scintillation counter. […]

T1 sequence (Q16539 whole entry): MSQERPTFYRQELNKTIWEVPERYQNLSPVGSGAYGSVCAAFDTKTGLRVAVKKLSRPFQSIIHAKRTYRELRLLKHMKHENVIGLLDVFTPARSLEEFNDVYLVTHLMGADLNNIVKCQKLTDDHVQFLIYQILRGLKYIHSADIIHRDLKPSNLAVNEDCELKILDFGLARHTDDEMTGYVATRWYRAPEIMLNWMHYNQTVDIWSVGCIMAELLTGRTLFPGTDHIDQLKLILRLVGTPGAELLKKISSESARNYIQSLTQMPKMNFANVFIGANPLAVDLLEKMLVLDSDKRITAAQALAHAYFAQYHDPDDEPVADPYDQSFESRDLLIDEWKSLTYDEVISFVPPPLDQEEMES

O=C1NCc2cc(Nc3ccccc3)ccc2N1c1ccccc1 [Example 1, 1-Phenyl-2-oxo-3.4-dihydro-6-phenylaminoquinazoline]
IC50: < 50 µM
